The results in this text go back to patent publication US10168342B2, “Lipid probes and uses thereof” (THE SCRIPPS RESEARCH INSTITUTE, priority 2015, dated 2019).

The term IC50 denotes the midpoint of a concentration-inhibition curve.

Like-named read-outs stand apart in the source and are kept apart here.

Test [1] concerns the target AEA-DA lipid probe targets in Neuro2a cells (Mus musculus, UniProt Q8VIK2).
The target of test [2] is T1, AEA-DA lipid probe targets in Neuro2a cells (Mus musculus, UniProt Q91X78).
T1 sequence (Q91X78 1-348): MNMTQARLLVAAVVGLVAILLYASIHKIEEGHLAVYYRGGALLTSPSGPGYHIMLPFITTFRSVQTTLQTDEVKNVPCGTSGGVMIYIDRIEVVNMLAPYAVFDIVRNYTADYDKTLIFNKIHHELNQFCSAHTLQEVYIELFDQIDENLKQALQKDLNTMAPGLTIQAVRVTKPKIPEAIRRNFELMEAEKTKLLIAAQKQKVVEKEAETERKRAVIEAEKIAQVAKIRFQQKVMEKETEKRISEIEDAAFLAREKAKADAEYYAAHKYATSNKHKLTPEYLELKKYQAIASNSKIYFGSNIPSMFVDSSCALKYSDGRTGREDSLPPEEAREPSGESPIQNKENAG

The subject of test [3] is PGE2 and TXB2 production in PMA-stimulated A549 cells. The experiment in a line: Prostaglandin production in A549 cells. The following applies: 10 μM, 30 min pre-treatment, then PMA. The class given is cell-based, human. The procedure: The old media was removed from each plate and cells were washed with DPBS (2×3 mL) before adding freshly prepared media solutions containing vehicle or compound (3 mL/plate). After incubating for 30 min at 37° C., cells were then stimulated with PMA (10 nM) for 8 h. The media from the cells was then transferred to glass vials containing MS internal standards [PGE2-d9 (10 pmol), PGD2-d9 (10 pmol) and TXB2-d4 (10 pmol)], centrifuged (1,500×g, 5 min) to remove detached cells and then loaded onto preequilibrated reversed phase SPE cartridges (Phenomenex, Strata-X 33 μm, 60 mg/3 mL). After washing cartridges with 5% MeOH/H2O (3 mL), analytes were eluted with MeOH (1.0 mL) and the eluent was concentrated under a stream of N2. Concentrated samples were stored at −80° C. until the day of analysis when they were reconstituted in Mobile Phase A [100 μL, 30% CH3CN in H2O (0.1% AcOH)]. Media extracts were analyzed by LC/MS/MS with LC separation performed on a Kinetex reversed phase C18 column (50×4.6 mm, 2.6 μM particle size, 100Å). Mobile phase gradients were identical to those described above for prostamide analysis and the composition Mobile phases A and B differed only by lacking NH4OAc (5 mM). The following MS parameters were used to measure the indicated metabolites by MRM (precursor ion, product ion, collision energy, polarity): PGE2 (351, 271, 12, negative), PGE2-d9 (360, 280, 12, negative), TXB2 (369, 169, 6, negative), TXB2-d4 (373, 173, 6, negative). PGE2 and TXB2 levels were quantified by determining peak areas in relation to their deuterated internal standard.

In another test the target is T2, human NUCB1 (Homo sapiens, UniProt Q02818).
T2 construct: made in house; host or cells: Escherichia coli BL21(DE3)
T2 sequence (Q02818 27-461): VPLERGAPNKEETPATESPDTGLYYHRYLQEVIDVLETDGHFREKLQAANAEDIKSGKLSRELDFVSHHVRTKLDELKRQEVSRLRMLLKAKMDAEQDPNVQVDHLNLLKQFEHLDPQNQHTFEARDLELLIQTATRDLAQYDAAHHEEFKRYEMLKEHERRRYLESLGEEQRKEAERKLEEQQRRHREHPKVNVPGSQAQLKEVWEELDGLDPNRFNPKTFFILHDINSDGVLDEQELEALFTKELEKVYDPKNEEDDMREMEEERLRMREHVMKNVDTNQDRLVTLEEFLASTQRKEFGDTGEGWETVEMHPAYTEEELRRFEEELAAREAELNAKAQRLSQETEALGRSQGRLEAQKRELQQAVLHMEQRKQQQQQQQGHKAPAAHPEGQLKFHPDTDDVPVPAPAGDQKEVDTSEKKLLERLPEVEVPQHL
The experiment in a line: In vitro gel-based competition of AEA-DA probe labeling of NUCB1. The class given is binding. To be noted: for IC50: AEA-DA 5 μM, recombinant NUCB1 0.25 μM doped into HEK293T lysates, percent of maximal competition, read-out: IC50, blockade of AEA-DA probe labeling of NUCB1. The procedure:
Human NUCB1 lacking the N-terminal signal sequence (M1-A26) was subcloned into pET45b(+) vector (Novagen) using the following PCR primers for amplification: 5′-CATCAATTGTGTGCCCCTGGAGAGAG-3′ and 5′-AGCAAGCTTTACAGATGTTGGGGCACC-3′. Following transformation of Escherichia coli strain BL21(DE3) with hNucb1ΔSSpET45b(+), a single colony was isolated and grown in Terrific Broth containing carbenicillin (100 mg/L) at 37° C. to an OD600 of 0.8. Protein expression was induced with IPTG (1.0 mM) and the cells were incubated at 20° C. with shaking overnight. After centrifugation, cells pellets were resuspended in cold buffer containing HEPES (0.05M), NaCl (0.03 M), imidazole (5.0 mM), DNase (0.1 mg/mL), MgCl2 (1.0 mM), CaCl2 (1.0 mM) and EDTA-free Complete Protease Inhibitor Cocktail and lysed using a microfluidizer. […] The suspension was applied to a column and the retained resin was washed with HEPES buffer containing 500 mM NaCl until the eluent was clean of DNA and protein (A280/260) and then with HEPES buffer containing 10 mM imidazole (5 mL/1 mL resin). Protein was then slowly eluted with HEPES buffer containing 50 mM imidazole in 1.0 mL fractions and the combined fractions containing hNUCB1 were passed through a Sephadex G-25M column to remove imidazole and concentrated in an Amicon centrifugal filter device (Millipore). These conditions produced hNUCB1 at approximately 10 mg/L of culture; however, several lower molecular weight fragments were also present in this preparation. hNUCB1 was further purified by size exclusion chromatography.
Cell lysates (1.0 mg/mL), the indicated lipid probe (2.5 or 5 μM) and, for recombinant NUCB1 competition experiments, purified hNUCB1 (250 nM) and CaCl2 (100 μM) were mixed on ice. DMSO or competitors were then added to the proteome mixture (50 μM) in 96-well plates and each sample was incubated for 15 min at 37° C. The samples were then irradiated with UV light and subjected to previously described click chemistry conditions. As before, each reaction was quenched with 4×SDS loading buffer (17 μL), and proteins were resolved using SDS-PAGE (10% acrylamide gel) and analyzed by in-gel fluorescent scanning on a Hitachi FMBIO-II flatbed fluorescence scanner. NUCB1 competition was quantitatively assessed by measuring the fluorescent intensity of the corresponding gel band using ImageJ 1.48v and normalizing this value by a non-competed gel band to control for loading differences.
Metabolite data are shown as mean±SEM (n=3-5/group). Differences between two groups were determined using Student's t test (unpaired, two-tailed) and significance was denoted for P values<0.05.

AEA-DA lipid probe targets in Neuro2a cells (Mus musculus, UniProt Q8VIK2), sequence (Q8VIK2 whole entry): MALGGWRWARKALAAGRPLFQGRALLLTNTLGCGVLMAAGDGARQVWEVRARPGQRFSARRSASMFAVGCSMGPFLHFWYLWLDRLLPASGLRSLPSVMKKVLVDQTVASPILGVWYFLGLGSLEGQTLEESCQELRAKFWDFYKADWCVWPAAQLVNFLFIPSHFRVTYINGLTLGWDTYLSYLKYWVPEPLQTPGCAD

Take `C=CCN(C)CCCCCCOc1ccc(C(=O)c2ccc(Br)cc2)c(F)c1` [Ro 48-8071, reference compound]: the “SILAC ratio Mpv17l2” value in test [1] (competitor 25 μM) turned out to be 1.8. In addition, in test [2] (competitor 25 μM), the “SILAC ratio Erlin1” value is on record as 1.2.

On to `CN1CCN(C(=O)c2[nH]c3ccc([N+](=O)[O-])cc3c2-c2ccccc2)CC1` [MJN228, (4-Methylpiperazin-1-yl)(5-nitro-3-phenyl-1H-indol-2-yl)methanone], for which the “PGE2 synthesis from endogenous AA” value in test [3] is “suppress”. Moreover, in test [3], the “TXB2 synthesis from endogenous AA” value was “suppress”. The “SILAC ratio Mpv17l2” value in test [1] (competitor 10 μM) is given as 1.1; in test [1] (competitor 25 μM), 1.2; in test [1] (competitor 50 μM), 1.0; in test [1] (competitor 100 μM), 3.6. Moreover, the “SILAC ratio Erlin1” value is 1.4 in test [2] (competitor 10 μM), 1.1 in test [2] (competitor 25 μM) and 1.1 in test [2] (competitor 100 μM). For the same compound, at human NUCB1, the IC50 was 3.3 µM.

Consider `CCCCC/C=C\C/C=C\C/C=C\C/C=C\CCCC(=O)NCCO` [AEA, anandamide, reference compound], for which the “SILAC ratio Mpv17l2” value in test [1] (competitor 200 μM) turned out to be 1.3. The “SILAC ratio Erlin1” value in test [2] (competitor 200 μM) is given as 1.7. At human NUCB1 (AEA-DA 5.0 μM, lipids 20×, NUCB1-transfected HEK293T lysates), the “competition of AEA-DA probe labeling of recombinant NUCB1 by lipids” value is given as “blocked”.

For `CN1CCN(C(=O)c2c(-c3ccccc3)c3cc([N+](=O)[O-])ccc3n2C)CC1` [KML110, (1-Methyl-5-nitro-3-phenyl-1H-indol-2-yl)(4-methylpiperazin-1-yl)methanone], in test [3], the “PGE2 synthesis from endogenous AA” value is listed as “suppress” and the “TXB2 synthesis from endogenous AA” value is recorded as “suppress”. The “SILAC ratio Mpv17l2” value in test [1] (competitor 25 μM) was found to be 1.5. Moreover, on human NUCB1, the IC50 worked out at 9.6 µM.

Take `O=C(/C=C/c1cccnc1)NCCCCC1CCN(C(=O)c2ccccc2)CC1` [FK-866, reference compound]: in test [3], the “PGE2 synthesis from endogenous AA” value is recorded as “no effect” and the “TXB2 synthesis from endogenous AA” value is given as “complete suppression”. Besides, the “SILAC ratio Mpv17l2” value in test [1] (competitor 25 μM) came to 1.4. For the same compound, the “SILAC ratio Erlin1” value in test [2] (competitor 25 μM) came out at 1.0.
